Measurements published in US20240209028A1, “CNP COMPOUNDS” (priority 2022, published 2024).
≈ marks a conversion by molar mass, not a printed value. Where two headings read alike, the source gives them in different places. Starred links: 1 amine or outer side, 2 acyl side, 3 side chain; linkers in the order of their positions; H or OH if unused. Positions of bridges follow the written chain, without caps; N, C: chain ends. Residues, ends and D or L forms follow the SMILES beside them. *: point of attachment. C18 diacid = O=C(O)CCCCCCCCCCCCCCCCC(=O)*; γGlu = O=C(O)[C@H](CCC(=O)[*:2])N[*:1]; AEEA = NCCOCCOCC(=O)O

Assay: Solubility of CNP compounds at pH 4.0 and pH 6.5
Assay type: physicochemical
Description: In order to assess the suitability of CNP compounds for a soluble liquid formulation, the solubility of CNP compounds in pharmaceutically relevant buffers were measured. Solubility at two different pH-levels (pH 4.0 and pH 6.5) was examined as pH is expected to affect solubility.
Preparation of pH 4.0 samples: The pH 4.0 samples of the CNP compounds were prepared by mixing freeze dried peptide with a pH 4.0 5 mM sodium acetate, 250 mM glycerol buffer at room temperature to a nominal concentration of at least 4000-5000 nmol/mL. The pH of the samples was measured and adjusted to pH 4.0 and the samples were allowed to equilibrate at room temperature until next day if not fully dissolved.
Preparation of pH 6.5 samples: The pH 6.5 samples of the CNP compounds were prepared by dissolving the freeze dried peptide in water. While stirring, a part of the peptide solution was transferred to a buffer consisting of 41 mM sodium phosphate and 118 mg/mL glycerol, pH 7.5-8.0, followed by addition of diluted sodium hydroxide followed by another part of the peptide solution and further addition of diluted sodium hydroxide. This procedure was repeated until all of the peptide solution had been added where a nominal concentration of at least 4000-5000 nmol/mL had been reached and the buffer composition was 8 mM sodium phosphate, 23 mg/mL glycerol. The pH of the samples were measured and adjusted to pH 6.5 and the samples were allowed to equilibrate at room temperature until next day if not fully dissolved.
Procedure: Samples at pH 4.0 were prepared as described above and the compound concentration in the supernatant was determined using CAD (Method F, CAD02).
Samples at pH 6.5 were prepared as described above and peptide concentration in the supernatant was determined by CAD (Method F, CAD02).

[1] = 8 mM sodium phosphate, 23 mg/mL glycerol, pH 6.5, room temperature, read-out: Solubility at pH 6.5

Structure (SMILES): CC[C@H](C)[C@@H]1NC(=O)[C@H](CCCNC(=N)N)NC(=O)[C@H](CC(=O)O)NC(=O)[C@H](CC(C)C)NC(=O)[C@@H]2CCCN2C(=O)[C@H](CC(C)C)NC(=O)CNC(=O)[C@H](Cc2ccccc2)NC(=O)[C@@H](NC(=O)CNC(=O)[C@H](CO)NC(=O)[C@H](CO)NC(=O)[C@H](CC(C)C)NC(=O)CNC(=O)[C@H](CCCCN)NC(=O)[C@H](CCCCN)NC(=O)[C@H](CCC(N)=O)NC(=O)[C@H](C)NC(=O)CNC(=O)[C@H](CCC(=O)O)NC(=O)[C@H](Cc2ccc(O)cc2)NC(=O)CNC(=O)CNC(=O)CNC(=O)COCCOCCNC(=O)COCCOCCNC(=O)CC[C@H](NC(=O)CCCCCCCCCCCCCCCCC(=O)O)C(=O)O)CSSC[C@@H](C(=O)O)NC(=O)CNC(=O)[C@H](CC(C)C)NC(=O)CNC(=O)[C@H](CO)NC(=O)[C@H](CC(C)C)NC(=O)[C@H](CO)NC(=O)CNC1=O [compound 1378] ({C18 diacid-γGlu-AEEA-AEEA}-GGGYEGAQKKGLSSGCFGLPLDRIGSLSGLGC-OH; disulfide 16-32)
- solubility [1]: 8.92 mM (≈ 33.9 mg/mL)

Structure (SMILES): CC[C@H](C)[C@@H]1NC(=O)[C@H](CCCNC(=N)N)NC(=O)[C@H](CC(=O)O)NC(=O)[C@H](CC(C)C)NC(=O)[C@@H]2CCCN2C(=O)[C@H](CC(C)C)NC(=O)CNC(=O)[C@H](Cc2ccccc2)NC(=O)[C@@H](NC(=O)CNC(=O)[C@H](CO)NC(=O)[C@H](CO)NC(=O)[C@H](CC(C)C)NC(=O)CNC(=O)[C@H](CCCCN)NC(=O)[C@H](CCCCN)NC(=O)[C@H](CCC(N)=O)NC(=O)[C@H](C)NC(=O)CNC(=O)[C@H](CCC(=O)O)NC(=O)[C@H](Cc2ccc(O)cc2)NC(=O)[C@H](CO)NC(=O)[C@H](CCCNC(=N)N)NC(=O)[C@H](C)NC(=O)[C@H](CCC(N)=O)NC(=O)[C@@H]2CCCN2C(=O)[C@H](Cc2c[nH]cn2)NC(=O)[C@H](CCC(=O)O)NC(=O)[C@H](CCC(N)=O)NC(=O)COCCOCCNC(=O)COCCOCCNC(=O)CC[C@H](NC(=O)CCCCCCCCCCCCCCCCC(=O)O)C(=O)O)CSSC[C@@H](C(=O)O)NC(=O)CNC(=O)[C@H](CC(C)C)NC(=O)CNC(=O)[C@H](CO)NC(=O)[C@H](CC(C)C)NC(=O)[C@H](CO)NC(=O)CNC1=O [compound 1379] ({C18 diacid-γGlu-AEEA-AEEA}-QEHPQARSYEGAQKKGLSSGCFGLPLDRIGSLSGLGC-OH; disulfide 21-37; C-terminus assumed)
- solubility [1]: 2.67 mM (≈ 12.2 mg/mL)

Structure (SMILES): CC[C@H](C)[C@@H]1NC(=O)[C@H](CCCNC(=N)N)NC(=O)[C@H](CC(=O)O)NC(=O)[C@H](CC(C)C)NC(=O)[C@@H]2CCCN2C(=O)[C@H](CC(C)C)NC(=O)CNC(=O)[C@H](Cc2ccccc2)NC(=O)[C@@H](NC(=O)CNC(=O)[C@H](CCC(N)=O)NC(=O)[C@H](CO)NC(=O)[C@H](CO)NC(=O)CNC(=O)[C@H](Cc2c[nH]cn2)NC(=O)[C@H](Cc2c[nH]cn2)NC(=O)[C@H](CCC(N)=O)NC(=O)[C@H](C)NC(=O)CNC(=O)[C@H](Cc2c[nH]cn2)NC(=O)[C@H](Cc2ccc(O)cc2)NC(=O)[C@H](CCCCN)NC(=O)[C@H](Cc2c[nH]cn2)NC(=O)[C@H](C)NC(=O)[C@H](CCC(N)=O)NC(=O)[C@@H]2CCCN2C(=O)[C@H](Cc2c[nH]cn2)NC(=O)[C@H](CCC(=O)O)NC(=O)[C@H](CCC(N)=O)NC(=O)COCCOCCNC(=O)COCCOCCNC(=O)CC[C@H](NC(=O)CCCCCCCCCCCCCCCCC(=O)O)C(=O)O)CSSC[C@@H](C(=O)O)NC(=O)CNC(=O)[C@H](CC(C)C)NC(=O)CNC(=O)[C@H](CO)NC(=O)[C@H](CC(C)C)NC(=O)[C@H](CO)NC(=O)CNC1=O [compound 1381] ({C18 diacid-γGlu-AEEA-AEEA}-QEHPQAHKYHGAQHHGSSQGCFGLPLDRIGSLSGLGC-OH; disulfide 21-37)
- solubility (5 mM sodium acetate, 250 mM glycerol, pH 4.0, room temperature, read-out: Solubility at pH 4.0): 9 mM (≈ 41.6 mg/mL)
